Test results taken from patent US20200369674A1, “ANTI-PAIN COMPOUND AND PREPARATION METHOD THEREOF” (LUNAN PHARMACEUTICAL GROUP CORPORATION, priority 2017, published 2020).

Tested on: CCI rats
Experiment: Thermal stimulation paw withdrawal latency (PWL) in CCI rats
Assay type: in vivo, SD rats
Conditions: for PWL: hot plate 50.5° C., cut-off 14s, mean±SEM
Procedure: SD rats, body weight 180 g-220 g, half of them being male and the other half being female, provided by the Department of Laboratory Animals, Peking University. The rats were raised in a standard environment with temperature of 22±0.5° C. and relative humidity of 55±5%, 12 h/12 h light-dark cycle, and fed with standard feed.
Rat was anesthetized with pentobarbital sodium (60 mg/kg, i.p.), the right hind limb was surgically shaved, fixed in the prone position, a longitudinal incision was made along the middle of the right hind limb of the rat, the muscle was bluntly separated, the sciatic nerve was exposed, and the sciatic nerve bifurcate proximal end was loosely ligated with 4-0 silk suture for 4 times, with an interval of about 1 mm each time, in which the degree of tightness was suitable when it was observed that the right hind leg was slightly shaken. After ligation, the muscle and skin were sutured in sequence. For the sham-operated group, the sciatic nerve was only exposed, but not ligated. The success of modeling was determined by observing whether the hind limb of the rat's operation side was closed, slightly valgus and often vacated, and by measuring the mechanical stimulation paw withdrawal threshold and the thermal stimulation paw withdrawal latency of the rat.
Before surgery, the mechanical stimulation paw withdrawal thresholds and the thermal stimulation paw withdrawal latencies in the rats were determined, and the rats were grouped as: sham operation group (sham), vehicle group (double-distilled water, i.g.), DXL-A-22 group (2 mg/kg, i.g.), DXL-A-24 group (1 mg/kg, i.g.), and Gabapentin group (100 mg/kg, i.g.). All compounds and drugs were dissolved in double-distilled water, and given by intragastric administration at 1 mL/100 g. From the first day after surgery, the administration was carried out every day, and the mechanical stimulation paw withdrawal threshold and the thermal stimulation paw withdrawal latency were measured 2 hours after administration.
The thermal stimulation paw withdrawal latency (PWL) was measured by a hot plate method. The measurement was carried out on the days 5, 7 and 14 after operation. The temperature of the hot plate was 50.5° C. Timing started when the rat was placed on the hot plate, and stopped when the shaking and foot licking responses of the rat appeared, and this time was the PWL of the rat. The hot plate cut-off time was 14s, and the percentage of analgesia (i.e., MPE %) was calculated according to formula (3):
MPE %=(PWL of test group−PWL of vehicle group)/(cut-off time−PWL of vehicle group)×100 (3)

[1] = 2 mg/kg i.g. daily, Day 5 after operation, section 3.2
[2] = 2 mg/kg i.g. daily, Day 7 after operation, section 3.2
[3] = 2 mg/kg i.g. daily, Day 14 after operation, section 3.2
[4] = 1 mg/kg i.g. daily, Day 5 after operation, section 3.4
[5] = 1 mg/kg i.g. daily, Day 7 after operation, section 3.4
[6] = 1 mg/kg i.g. daily, Day 14 after operation, section 3.4

SMILES	PWL [1]	MPE(%) [1] [%]	PWL [2]	MPE(%) [2] [%]	PWL [3]	MPE(%) [3] [%]	PWL [4]	MPE(%) [4] [%]	PWL [5]	MPE(%) [5] [%]	PWL [6]	MPE(%) [6] [%]
Br.Brc1ccc(N2CC[N+]3(CCCC3)CC2)cc1 [DXL-A-22, 8-(4-bromophenyl)-5,8-diazaspiro[4.5]decan-5-ium bromide]	10.84 ± 0.32**/	51.61	11.28 ± 0.64**/	58.91	11.19 ± 0.52**/	55.61						
FC(F)(F)c1ccc(N2CC[N+]3(CCCC3)CC2)cc1.[Br-] [DXL-A-24, 8-(4-(trifluoromethyl)phenyl)-5,8-diazaspiro[4.5]decan-5-ium bromide]							11.29 ± 0.57**/	52.62	12.35 ± 0.55**/	72.36	13.26 ± 0.43**/	88.79
